Laboratory results published in patent US7557109B2, “Treatment for attention-deficit hyperactivity disorder” (priority 2001, dated 2009).

Assays:
C3H mice = assay: Peak procedure (30 second reinforcement interval), C3H mice; format: in vivo
Procedure: The peak procedure is a behavioral model designed to assess an animal's ability to learn an appropriate time period in which to perform a task and a time period in which the animal will be rewarded if the task is performed. The model provides information concerning excitatory and inhibitory components of behavior, as subjects must respond to perform a task when appropriate and stop responding in an “empty trial” when time for reward has elapsed and the reward has not been delivered. The task is sensitive to conditions where there is a failure in inhibitory mechanisms, such as seems to be the case for ADHD (Pliszka et al., Biol. Psychiatry, 48:238-46, 2000).
In the peak procedure, mice are trained to work for food that is delivered at the same time in each trial, but withdrawn in some unreinforced trials. Typically, the response rate increases up to a maximum around the reinforcement time, and then decreases to a low toward the end of the trial. The shape of the response rate indicates whether the animal is sensitive to the time of reinforcement. To be able to perform well in this model, the animals need to be able to learn several tasks. First, the animal must make an association between a response (lever pressing, nose poking or key pecking) and the delivery of reward. Second, the animal must be able to perceive and remember time. Third, the animal must act on its remembered time by starting and then stopping or inhibiting the response. Fourth, the animal must be able to compare the elapsed time in the trials with its remembered time to reinforcement. […] Accuracy is measured by looking at the shape of the response function; therefore, if the response function is sharper and centered on the reinforcement time it supports a conclusion that attentional processes have been heightened.
Mice were food deprived to 85-90% of their free-feeding body weight by supplementing food earned during experimental sessions with a measured amount after the session had ended. […]

[1] = in vivo; cited from earlier work
wild-type mice = assay: Open-field locomotor activity, wild-type littermates; format: in vivo
Excerpt: (§1) Heterozygote coloboma mice were originally purchased from The Jackson Laboratory (Bar Harbor, Me.) and were bred and maintained in our colony. In the current study, 20 mutant mice and 25 wild-type littermates, all aged 8 to 10 weeks, were used. Animals were divided into 4 groups: mutant/drug-treatment (n=11), mutant/vehicle-control (n=9), wild-type/drug-treatment (n=13), wild-type/vehicle-control (n=12). Age and gender were balanced among groups. All animals were housed as littermates (2-4 mice per cage) and were maintained on ad libitum food and water with a 12 hr light/dark cycle.
(§2) Open-field testing was performed under normal lighting conditions. Mice were brought into the experimental room and allowed at least 1 hr of acclimatization. Thirty minutes prior to testing, animals received an ip. injection of either d-amphetamine (4 mg/kg), eltoprazine (0.5 mg/kg) or saline. The mice were then placed in the activity monitor arenas (27×27×20 cm, Med Associates). Four animals of matching genotype and treatment were tested at one time. Each testing session lasted 40 minutes, after which animals were returned to their home cages. An automated infrared beam array system measured locomotor activity (total distance traveled) and number of center entries (zone crossings).

[2] = system: coloboma (Cm) mutant mice; format: in vivo
Excerpt: as §1, §2

[3] = 0.5 mg/kg i.p. vs saline (FIG. 6C, 6D)

For `c1cc2c(c(N3CCNCC3)c1)OCCO2` [eltoprazine, 1-(2,3-dihydro-1,4-benzodioxanyl-5-yl) piperazine], the “relative response rate curve in peak trials” value (C3H mice; 0.1 and 0.9 mg/kg (FIG. 3)) is listed as “cognitive enhancement was observed”, the “relative response rate curve in peak trials” value (C3H mice; 1, 2 and 4 mg/kg (FIGS. 2A-C)) is listed as “flatter than the saline curve” and the absolute bioavailability [1] is listed as “about 95%”. For the same compound, the “cumulative renal excretion of unchanged eltoprazine” value [1] was “about 40%”, the “dose dependence of plasma concentrations” value [1] was “increase in a linear dose-dependent manner” and the plasma elimination half-life [1] was 5 to 12 h. For the same compound, the terminal half-life [1] was 7 to 9 h, the “time to maximum plasma concentration after administration” value [1] was 1 to 4 h and the “locomotor activity (distance traveled or zones crossed)” value (wild-type mice; 0.5 mg/kg i.p.) was “did not influence the locomotor activity”. The “exploratory preference (center vs periphery of arena)” value (wild-type mice; 0.5 mg/kg i.p. (FIG. 6A, 6B)) was “no effect on exploratory preference”, the rearing behavior (wild-type mice; [3]) was “same pattern of rearing behavior” and the “reduction of total ambulatory distance from that of saline-treated Cm mutants” value ([2]; 0.5 mg/kg i.p.) was “more than 50%”. For the same compound, the “number of zone crossings” value ([2]; 0.5 mg/kg i.p. (FIG. 5B)) was “decreased the number of zone crossings in Cm mutants to within the range of saline-treated wild-type mice”, the “exploratory preference (center vs periphery of arena)” value ([2]; 0.5 mg/kg i.p. (FIG. 6A, 6B)) was “no effect on exploratory preference” and the rearing behavior [2, 3] was “same pattern of rearing behavior”. The total ambulatory distance ([2]; 0.5 mg/kg i.p., 40 min session, saline 17725±6636 cm (FIG. 5A)) was 8641±1811 and the sedative effect ([2]; 0.5 mg/kg i.p., open field) was “no sedative effect”.
